Source: the kinase profiling compilation of Christmann-Franck et al. (2016)

What was measured:
Experiment in all cases: KINOMEscan competition binding
Details in all cases: compound 10.0 µM
[1] = target: MAP2K1 (human) (UniProt Q02750)
[2] = target: STK17B (human) (UniProt O94768)
[3] = target: NEK5 (human) (UniProt Q6P3R8)
[4] = target: TESK1 (human) (UniProt Q15569)
[5] = target: RPS6KA5 KD1 (human) (UniProt O75582)
[6] = target: PRKX (human) (UniProt P51817)
[7] = target: PAK2 (human) (UniProt Q13177)
[8] = target: SYK (human) (UniProt P43405)
[9] = target: TYK2 JH2 pseudokinase (human) (UniProt P29597)
[10] = target: SRPK2 (human) (UniProt P78362)
[11] = target: MAP2K3 (human) (UniProt P46734)
[12] = target: CAMKK2 (human) (UniProt Q96RR4)
[13] = target: SIK1 (human) (UniProt P57059)
[14] = target: CHEK2 (human) (UniProt O96017)
[15] = target: ACVR1B (human) (UniProt P36896)
[16] = target: MAP3K5 (human) (UniProt Q99683)
[17] = target: STK36 (human) (UniProt Q9NRP7)
[18] = target: MAP3K3 (human) (UniProt Q99759)
[19] = target: CDK19 (human) (UniProt Q9BWU1)
[20] = target: MAPK9 (human) (UniProt P45984)
[21] = target: IKBKE (human) (UniProt Q14164)
[22] = target: FYN (human) (UniProt P06241)
[23] = target: CLK2 (human) (UniProt P49760)
[24] = target: MAPK3 (human) (UniProt P27361)
[25] = target: ALK (human) (UniProt Q9UM73)
[26] = target: MARK2 (human) (UniProt Q7KZI7)
[27] = target: GSK3A (human) (UniProt P49840)
[28] = target: SGK110 (human) (UniProt P0C264)
[29] = target: CHUK (human) (UniProt O15111)
[30] = target: PRKD2 (human) (UniProt Q9BZL6)
[31] = target: ACVR2B (human) (UniProt Q13705)
[32] = target: EPHA4 (human) (UniProt P54764)
[33] = target: ROCK2 (human) (UniProt O75116)
[34] = target: CDK3 (human) (UniProt Q00526)
[35] = target: PIP5K1A (human) (UniProt Q99755)
[36] = target: KDR (human) (UniProt P35968)
[37] = target: MAPK11 (human) (UniProt Q15759)
[38] = target: YES1 (human) (UniProt P07947)
[39] = target: EPHA2 (human) (UniProt P29317)
[40] = target: LTK (human) (UniProt P29376)

Sequence of NEK5 (human) (Q6P3R8 whole entry, looked up): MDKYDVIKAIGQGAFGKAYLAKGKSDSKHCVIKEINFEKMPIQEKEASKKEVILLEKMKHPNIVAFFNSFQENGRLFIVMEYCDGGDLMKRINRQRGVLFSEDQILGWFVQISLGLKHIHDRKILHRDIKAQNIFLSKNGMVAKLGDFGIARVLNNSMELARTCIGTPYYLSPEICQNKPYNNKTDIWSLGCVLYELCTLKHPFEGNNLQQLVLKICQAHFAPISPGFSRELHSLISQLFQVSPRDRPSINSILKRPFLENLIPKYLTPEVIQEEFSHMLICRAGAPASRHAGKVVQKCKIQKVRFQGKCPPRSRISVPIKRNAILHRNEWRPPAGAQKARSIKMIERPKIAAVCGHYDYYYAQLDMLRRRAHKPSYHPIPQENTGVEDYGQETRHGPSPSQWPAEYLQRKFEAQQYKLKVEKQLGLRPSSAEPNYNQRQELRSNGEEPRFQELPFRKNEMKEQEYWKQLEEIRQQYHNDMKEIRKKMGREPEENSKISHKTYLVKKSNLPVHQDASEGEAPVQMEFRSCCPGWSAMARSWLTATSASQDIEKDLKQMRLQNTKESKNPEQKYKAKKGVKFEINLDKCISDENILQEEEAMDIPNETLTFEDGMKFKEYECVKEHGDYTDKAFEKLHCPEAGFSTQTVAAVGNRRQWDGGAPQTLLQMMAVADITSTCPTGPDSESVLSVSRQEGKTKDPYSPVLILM
Sequence of CHEK2 (human) (O96017 whole entry, looked up): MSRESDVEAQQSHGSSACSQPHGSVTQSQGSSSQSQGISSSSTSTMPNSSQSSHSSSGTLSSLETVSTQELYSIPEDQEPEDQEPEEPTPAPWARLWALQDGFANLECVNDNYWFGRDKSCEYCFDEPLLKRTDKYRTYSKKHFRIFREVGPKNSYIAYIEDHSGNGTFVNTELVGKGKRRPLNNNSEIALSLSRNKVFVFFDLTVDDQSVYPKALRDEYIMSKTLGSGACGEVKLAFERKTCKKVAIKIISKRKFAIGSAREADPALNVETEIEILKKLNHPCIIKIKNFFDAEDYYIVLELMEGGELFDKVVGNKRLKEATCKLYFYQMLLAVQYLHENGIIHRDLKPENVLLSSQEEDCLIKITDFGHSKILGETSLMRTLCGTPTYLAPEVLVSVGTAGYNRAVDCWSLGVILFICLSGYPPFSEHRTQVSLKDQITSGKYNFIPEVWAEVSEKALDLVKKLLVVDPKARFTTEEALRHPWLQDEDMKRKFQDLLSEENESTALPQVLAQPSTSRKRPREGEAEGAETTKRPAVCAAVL
Sequence of ALK (human) (Q9UM73 whole entry, looked up): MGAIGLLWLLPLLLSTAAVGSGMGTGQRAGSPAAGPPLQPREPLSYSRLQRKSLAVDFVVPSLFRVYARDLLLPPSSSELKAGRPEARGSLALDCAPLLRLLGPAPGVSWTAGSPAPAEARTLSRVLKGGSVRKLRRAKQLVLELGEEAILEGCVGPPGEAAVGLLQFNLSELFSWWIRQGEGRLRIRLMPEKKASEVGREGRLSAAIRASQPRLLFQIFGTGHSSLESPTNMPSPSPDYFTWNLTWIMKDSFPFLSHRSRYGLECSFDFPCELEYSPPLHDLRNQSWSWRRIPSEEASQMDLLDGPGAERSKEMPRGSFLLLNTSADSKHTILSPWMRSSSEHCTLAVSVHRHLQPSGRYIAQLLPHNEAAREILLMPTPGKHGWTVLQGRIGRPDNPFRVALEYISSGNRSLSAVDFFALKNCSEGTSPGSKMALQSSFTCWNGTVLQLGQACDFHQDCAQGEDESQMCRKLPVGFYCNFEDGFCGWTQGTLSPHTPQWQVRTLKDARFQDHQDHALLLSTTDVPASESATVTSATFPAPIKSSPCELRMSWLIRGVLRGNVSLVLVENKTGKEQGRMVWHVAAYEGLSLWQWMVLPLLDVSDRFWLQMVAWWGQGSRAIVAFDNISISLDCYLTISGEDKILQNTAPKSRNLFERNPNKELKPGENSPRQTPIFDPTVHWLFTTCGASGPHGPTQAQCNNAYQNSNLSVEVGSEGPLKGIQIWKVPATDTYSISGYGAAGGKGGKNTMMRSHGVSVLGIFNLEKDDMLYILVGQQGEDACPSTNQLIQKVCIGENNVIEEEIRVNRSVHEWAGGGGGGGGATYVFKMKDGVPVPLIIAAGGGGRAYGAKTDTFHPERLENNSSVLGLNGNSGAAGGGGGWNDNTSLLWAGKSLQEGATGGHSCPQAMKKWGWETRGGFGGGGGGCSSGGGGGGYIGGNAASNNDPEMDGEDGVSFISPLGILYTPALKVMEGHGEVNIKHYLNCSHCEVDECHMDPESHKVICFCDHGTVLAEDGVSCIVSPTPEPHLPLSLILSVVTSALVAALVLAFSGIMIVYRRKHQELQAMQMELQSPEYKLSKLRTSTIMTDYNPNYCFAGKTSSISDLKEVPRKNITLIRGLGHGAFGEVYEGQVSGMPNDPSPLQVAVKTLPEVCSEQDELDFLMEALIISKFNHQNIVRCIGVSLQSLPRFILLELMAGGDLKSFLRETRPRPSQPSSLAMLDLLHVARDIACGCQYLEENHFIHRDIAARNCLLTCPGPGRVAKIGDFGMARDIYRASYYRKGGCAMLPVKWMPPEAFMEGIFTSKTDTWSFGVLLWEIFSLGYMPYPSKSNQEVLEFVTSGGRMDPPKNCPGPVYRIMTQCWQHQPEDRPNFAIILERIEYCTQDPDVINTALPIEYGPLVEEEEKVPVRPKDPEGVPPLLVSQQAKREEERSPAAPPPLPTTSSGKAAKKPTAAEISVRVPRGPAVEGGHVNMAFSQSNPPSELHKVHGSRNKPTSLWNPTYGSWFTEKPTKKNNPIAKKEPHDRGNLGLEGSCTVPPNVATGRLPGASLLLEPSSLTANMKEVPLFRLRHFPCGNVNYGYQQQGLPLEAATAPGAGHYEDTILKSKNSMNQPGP
Sequence of PAK2 (human) (Q13177 whole entry, looked up): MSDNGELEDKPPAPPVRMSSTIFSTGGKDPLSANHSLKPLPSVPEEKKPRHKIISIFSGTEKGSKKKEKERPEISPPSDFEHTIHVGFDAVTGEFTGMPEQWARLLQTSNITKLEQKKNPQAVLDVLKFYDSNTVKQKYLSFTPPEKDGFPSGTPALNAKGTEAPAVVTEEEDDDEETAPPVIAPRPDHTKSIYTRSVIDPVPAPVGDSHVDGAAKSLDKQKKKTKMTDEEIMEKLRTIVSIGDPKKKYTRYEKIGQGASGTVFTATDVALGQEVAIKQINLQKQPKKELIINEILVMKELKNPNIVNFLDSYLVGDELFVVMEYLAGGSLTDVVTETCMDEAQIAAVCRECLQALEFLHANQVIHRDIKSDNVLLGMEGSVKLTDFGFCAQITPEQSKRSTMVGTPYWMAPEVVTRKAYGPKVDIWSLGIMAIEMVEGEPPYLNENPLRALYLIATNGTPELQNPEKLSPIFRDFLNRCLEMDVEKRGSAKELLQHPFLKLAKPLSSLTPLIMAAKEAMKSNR
Sequence of PRKD2 (human) (Q9BZL6 whole entry, looked up): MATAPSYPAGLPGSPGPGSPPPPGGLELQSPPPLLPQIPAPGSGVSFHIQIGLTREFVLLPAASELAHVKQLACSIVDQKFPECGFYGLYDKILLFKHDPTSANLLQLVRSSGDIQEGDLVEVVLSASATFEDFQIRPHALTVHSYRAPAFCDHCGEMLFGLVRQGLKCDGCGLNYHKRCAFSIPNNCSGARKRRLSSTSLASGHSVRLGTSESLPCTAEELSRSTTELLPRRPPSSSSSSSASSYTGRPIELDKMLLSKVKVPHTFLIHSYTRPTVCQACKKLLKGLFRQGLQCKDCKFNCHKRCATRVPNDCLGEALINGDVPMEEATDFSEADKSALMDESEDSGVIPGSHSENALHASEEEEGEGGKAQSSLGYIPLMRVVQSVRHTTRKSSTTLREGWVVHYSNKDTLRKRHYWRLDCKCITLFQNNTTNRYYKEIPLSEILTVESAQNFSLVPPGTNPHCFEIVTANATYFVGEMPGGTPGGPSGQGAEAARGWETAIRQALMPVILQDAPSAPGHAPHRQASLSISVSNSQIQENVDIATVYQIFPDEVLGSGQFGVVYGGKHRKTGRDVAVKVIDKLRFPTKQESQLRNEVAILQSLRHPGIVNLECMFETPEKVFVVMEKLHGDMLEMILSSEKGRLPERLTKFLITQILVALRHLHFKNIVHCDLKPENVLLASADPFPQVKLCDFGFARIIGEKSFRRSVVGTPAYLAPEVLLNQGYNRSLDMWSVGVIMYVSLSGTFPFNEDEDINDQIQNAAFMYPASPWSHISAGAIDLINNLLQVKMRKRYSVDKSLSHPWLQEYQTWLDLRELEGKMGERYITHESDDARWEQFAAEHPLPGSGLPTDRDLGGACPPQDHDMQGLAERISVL
Sequence of MAPK3 (human) (P27361 whole entry, looked up): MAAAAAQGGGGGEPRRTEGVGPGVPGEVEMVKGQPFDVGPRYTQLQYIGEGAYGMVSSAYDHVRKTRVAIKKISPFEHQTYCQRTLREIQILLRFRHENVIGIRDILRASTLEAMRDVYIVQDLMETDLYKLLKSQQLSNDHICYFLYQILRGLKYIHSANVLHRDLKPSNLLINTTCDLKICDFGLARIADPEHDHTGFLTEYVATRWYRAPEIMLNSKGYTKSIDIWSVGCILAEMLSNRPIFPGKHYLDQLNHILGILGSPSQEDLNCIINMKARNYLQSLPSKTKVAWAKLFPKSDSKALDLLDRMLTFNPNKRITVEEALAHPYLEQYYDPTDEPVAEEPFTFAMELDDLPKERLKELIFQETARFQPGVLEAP
Sequence of MAP2K1 (human) (Q02750 whole entry, looked up): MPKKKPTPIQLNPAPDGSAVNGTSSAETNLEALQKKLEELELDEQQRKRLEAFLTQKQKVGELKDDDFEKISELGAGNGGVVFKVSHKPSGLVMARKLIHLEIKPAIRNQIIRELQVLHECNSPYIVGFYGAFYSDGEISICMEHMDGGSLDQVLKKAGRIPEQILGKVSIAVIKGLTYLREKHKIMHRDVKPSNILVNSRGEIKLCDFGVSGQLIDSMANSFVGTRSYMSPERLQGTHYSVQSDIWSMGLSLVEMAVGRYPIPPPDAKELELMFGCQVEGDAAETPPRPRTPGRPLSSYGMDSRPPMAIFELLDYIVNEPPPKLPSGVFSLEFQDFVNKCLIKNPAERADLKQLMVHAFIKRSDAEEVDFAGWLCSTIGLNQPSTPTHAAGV

Row | SMILES | kinase still bound, per cent of control [1] | kinase still bound, per cent of control [2] | kinase still bound, per cent of control [3] | kinase still bound, per cent of control [4] | kinase still bound, per cent of control [5] | kinase still bound, per cent of control [6] | kinase still bound, per cent of control [7] | kinase still bound, per cent of control [8] | kinase still bound, per cent of control [9] | kinase still bound, per cent of control [10] | kinase still bound, per cent of control [11] | kinase still bound, per cent of control [12] | kinase still bound, per cent of control [13] | kinase still bound, per cent of control [14] | kinase still bound, per cent of control [15] | kinase still bound, per cent of control [16] | kinase still bound, per cent of control [17] | kinase still bound, per cent of control [18] | kinase still bound, per cent of control [19] | kinase still bound, per cent of control [20] | further results
1 | C=CC(=O)Nc1cc(NC(=O)c2ccc(C)c(NC(=O)c3ccno3)c2)cc(C(F)(F)F)c1 | 87% | 89% | 100% | 100% | 82% | 84% | 71% | 100% | 100% | 89% | 100% | 69% | 97% | 96% | 100% | 100% | 100% | 96% | 96% | 94% | kinase still bound, per cent of control [21]: 100%; kinase still bound, per cent of control [22]: 73%; kinase still bound, per cent of control [23]: 80%; kinase still bound, per cent of control [24]: 97%; kinase still bound, per cent of control [25]: 95%; kinase still bound, per cent of control [26]: 100%; kinase still bound, per cent of control [27]: 100%; kinase still bound, per cent of control [28]: 100%; kinase still bound, per cent of control [29]: 100%; kinase still bound, per cent of control [30]: 100%; kinase still bound, per cent of control [31]: 100%; kinase still bound, per cent of control [32]: 48%; kinase still bound, per cent of control [33]: 85%; kinase still bound, per cent of control [34]: 97%; kinase still bound, per cent of control [35]: 100%; kinase still bound, per cent of control [36]: 87%; kinase still bound, per cent of control [37]: 4.8%; kinase still bound, per cent of control [38]: 46%; kinase still bound, per cent of control [39]: 28%; kinase still bound, per cent of control [40]: 89%
2 | O=C(NC1CC1)c1cccc(-c2ccc3c(NC(=O)C4CC4)n[nH]c3c2)c1 | 100% | 100% | 60% | 100% | 100% | 100% | 69% | 100% | 32% | 58% | 33% | 94% | 84% | 100% | 59% | 100% | 88% | 85% | 79% | 50% | kinase still bound, per cent of control [21]: 100%; kinase still bound, per cent of control [22]: 79%; kinase still bound, per cent of control [23]: 37%; kinase still bound, per cent of control [24]: 95%; kinase still bound, per cent of control [25]: 100%; kinase still bound, per cent of control [26]: 45%; kinase still bound, per cent of control [27]: 84%; kinase still bound, per cent of control [28]: 100%; kinase still bound, per cent of control [29]: 76%; kinase still bound, per cent of control [30]: 100%; kinase still bound, per cent of control [31]: 84%; kinase still bound, per cent of control [32]: 100%; kinase still bound, per cent of control [33]: 53%; kinase still bound, per cent of control [34]: 7.2%; kinase still bound, per cent of control [35]: 28%; kinase still bound, per cent of control [36]: 93%; kinase still bound, per cent of control [37]: 2.6%; kinase still bound, per cent of control [38]: 92%; kinase still bound, per cent of control [39]: 100%; kinase still bound, per cent of control [40]: 100%
